# What was measured:
# Type in all cases: in vivo
# [1] = tested on: Italian ryegrass; experiment: Test Example 3: weedkilling efficacy through soil treatment; I: Italian ryegrass; conditions: treatment dosage 1250 g/ha
# In short: (§1)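 Crop and weed responses were judged three weeks after a uniform surface spray of the water-diluted emulsion at the given g/ha rate. Seeds sat beneath about 1.5 cm of sterilized diluvial soil, and boxes stood in a greenhouse at 25 to 30° C.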
# [2] = tested on: fig-leafed goosefoot; experiment: Test Example 3: weedkilling efficacy through soil treatment; M: fig-leafed goosefoot; conditions: treatment dosage 1250 g/ha
# In short: as §1
# [3] = tested on: black-grass; experiment: Test Example 3: weedkilling efficacy through soil treatment; H: black-grass; conditions: treatment dosage 1250 g/ha
# In short: as §1
# [4] = tested on: soybean; experiment: Test Example 3: soil treatment, effect on crop; d: soybean; conditions: treatment dosage 1250 g/ha
# In short: as §1
# [5] = tested on: chickweed; experiment: Test Example 4: weedkilling efficacy by foliar treatment; N: chickweed; conditions: treatment dosage 1250 g/ha
# In short: (§2)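 Seeds are spot-sown into sterilized diluvial soil and covered with about 1.5 cm of soil. After 14 days' greenhouse growth at 25 to 30° C, plants are sprayed on stems and leaves with diluted emulsion at the stated g/ha rate, then scored at 3 weeks.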
# [6] = tested on: wild oat; experiment: Test Example 4: weedkilling efficacy by foliar treatment; G: wild oat; conditions: treatment dosage 1250 g/ha
# In short: as §2
# [7] = tested on: corn; experiment: Test Example 4: foliar treatment, effect on crop; c: corn; conditions: treatment dosage 1250 g/ha
# In short: as §2
# [8] = tested on: Italian ryegrass; experiment: Test Example 4: weedkilling efficacy by foliar treatment; I: Italian ryegrass; conditions: treatment dosage 1250 g/ha
# In short: as §2
# [9] = tested on: directly sown rice; experiment: Test Example 4: foliar treatment, effect on crop; b: directly sown rice; conditions: treatment dosage 1250 g/ha
# In short: as §2
# [10] = tested on: oval-leafed pondweed; experiment: Test Example 2: weedkilling efficacy, growth period weed treatment in the submerged state; C: oval-leafed pondweed; conditions: treatment dosage 1000 g/ha
# In short: (§3)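 Seedlings at 1-2 leaves in 4 cm-deep submerged alluvial soil received emulsion formulations on the water surface, dosed per hectare; effects were judged 3 weeks on.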
# [11] = tested on: oval-leafed pondweed; experiment: Test Example 1: weedkilling efficacy, preemergent weed treatment in the submerged state; C: oval-leafed pondweed; conditions: treatment dosage 1000 g/ha
# In short: (§4)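 Pre-emergence paddy test: weed seeds sown in submerged alluvial soil (4 cm water), 2.5-leaf rice transplanted, water-diluted emulsion applied to water surface at sowing at stated g/ha. Scored at 3 weeks, greenhouse 25–30 °C.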
# [12] = tested on: bulrush; experiment: Test Example 1: weedkilling efficacy, preemergent weed treatment in the submerged state; B: bulrush; conditions: treatment dosage 1000 g/ha
# In short: as §4
# [13] = tested on: soybean; experiment: Test Example 4: foliar treatment, effect on crop; d: soybean; conditions: treatment dosage 1250 g/ha
# In short: as §2
# [14] = tested on: birds-eye speedwell; experiment: Test Example 3: weedkilling efficacy through soil treatment; p: birds-eye speedwell; conditions: treatment dosage 1250 g/ha
# In short: as §1
# [15] = tested on: barnyard grass; experiment: Test Example 2: weedkilling efficacy, growth period weed treatment in the submerged state; A: barnyard grass; conditions: treatment dosage 1000 g/ha
# In short: as §3
# [16] = tested on: catchweed; experiment: Test Example 3: weedkilling efficacy through soil treatment; O: catchweed; conditions: treatment dosage 1250 g/ha
# In short: as §1
# [17] = tested on: wild oat; experiment: Test Example 3: weedkilling efficacy through soil treatment; G: wild oat; conditions: treatment dosage 1250 g/ha
# In short: as §1
# [18] = tested on: directly sown rice; experiment: Test Example 3: soil treatment, effect on crop; b: directly sown rice; conditions: treatment dosage 1250 g/ha
# In short: as §1
# [19] = tested on: redroot pigweed; experiment: Test Example 4: weedkilling efficacy by foliar treatment; L: redroot pigweed; conditions: treatment dosage 1250 g/ha
# In short: as §2
# [20] = tested on: catchweed; experiment: Test Example 4: weedkilling efficacy by foliar treatment; O: catchweed; conditions: treatment dosage 1250 g/ha
# In short: as §2
# [21] = tested on: bulrush; experiment: Test Example 2: weedkilling efficacy, growth period weed treatment in the submerged state; B: bulrush; conditions: treatment dosage 1000 g/ha
# In short: as §3
# [22] = tested on: green foxtail; experiment: Test Example 4: weedkilling efficacy by foliar treatment; E: green foxtail; conditions: treatment dosage 1250 g/ha
# In short: as §2
# [23] = tested on: beet; experiment: Test Example 3: soil treatment, effect on crop; f: beet; conditions: treatment dosage 1250 g/ha
# In short: as §1
# [24] = tested on: green foxtail; experiment: Test Example 3: weedkilling efficacy through soil treatment; E: green foxtail; conditions: treatment dosage 1250 g/ha
# In short: as §1
# [25] = tested on: Indian mallow; experiment: Test Example 3: weedkilling efficacy through soil treatment; K: Indian mallow; conditions: treatment dosage 1250 g/ha
# In short: as §1
# [26] = tested on: Indian mallow; experiment: Test Example 4: weedkilling efficacy by foliar treatment; K: Indian mallow; conditions: treatment dosage 1250 g/ha
# In short: as §2
# [27] = tested on: crabgrass; experiment: Test Example 4: weedkilling efficacy by foliar treatment; D: crabgrass; conditions: treatment dosage 1250 g/ha
# In short: as §2
# [28] = tested on: fig-leafed goosefoot; experiment: Test Example 4: weedkilling efficacy by foliar treatment; M: fig-leafed goosefoot; conditions: treatment dosage 1250 g/ha
# In short: as §2
# [29] = tested on: redroot pigweed; experiment: Test Example 3: weedkilling efficacy through soil treatment; L: redroot pigweed; conditions: treatment dosage 1250 g/ha
# In short: as §1
# [30] = tested on: black-grass; experiment: Test Example 4: weedkilling efficacy by foliar treatment; H: black-grass; conditions: treatment dosage 1250 g/ha
# In short: as §2
# [31] = tested on: corn; experiment: Test Example 3: soil treatment, effect on crop; c: corn; conditions: treatment dosage 1250 g/ha
# In short: as §1
# [32] = tested on: birds-eye speedwell; experiment: Test Example 4: weedkilling efficacy by foliar treatment; p: birds-eye speedwell; conditions: treatment dosage 1250 g/ha
# In short: as §2
# [33] = tested on: transplanted rice; experiment: Test Example 1: preemergent weed treatment in the submerged state, effect on crop; a: transplanted rice; conditions: treatment dosage 1000 g/ha
# In short: as §4
# [34] = tested on: wheat; experiment: Test Example 3: soil treatment, effect on crop; e: wheat; conditions: treatment dosage 1250 g/ha
# In short: as §1
# [35] = tested on: chickweed; experiment: Test Example 3: weedkilling efficacy through soil treatment; N: chickweed; conditions: treatment dosage 1250 g/ha
# In short: as §1
# [36] = tested on: barnyard grass; experiment: Test Example 1: weedkilling efficacy, preemergent weed treatment in the submerged state; A: barnyard grass; conditions: treatment dosage 1000 g/ha
# In short: as §4
# [37] = tested on: beet; experiment: Test Example 4: foliar treatment, effect on crop; f: beet; conditions: treatment dosage 1250 g/ha
# In short: as §2
# [38] = tested on: wheat; experiment: Test Example 4: foliar treatment, effect on crop; e: wheat; conditions: treatment dosage 1250 g/ha
# In short: as §2
# [39] = tested on: crabgrass; experiment: Test Example 3: weedkilling efficacy through soil treatment; D: crabgrass; conditions: treatment dosage 1250 g/ha
# In short: as §1
smiles,measurement,setting,value
CC1=C(c2cccnc2Cl)C(=O)N(C(C)(C)C(=O)Nc2cccc(F)n2)CO1 [B-2-19],I (Italian ryegrass) weedkilling efficacy grade,[1],"5 (weed kill ratio 90% or more, (practically complete withering))"
same,M (fig-leafed goosefoot) weedkilling efficacy grade,[2],"5 (weed kill ratio 90% or more, (practically complete withering))"
same,H (black-grass) weedkilling efficacy grade,[3],"5 (weed kill ratio 90% or more, (practically complete withering))"
same,d (soybean) effect on crop grade,[4],0 (weed kill ratio 5% or less (practically no effect))
same,N (chickweed) weedkilling efficacy grade,[5],"3 (weed kill ratio 40% or more, less than 70%)"
same,G (wild oat) weedkilling efficacy grade,[6],"3 (weed kill ratio 40% or more, less than 70%)"
same,c (corn) effect on crop grade,[7],"1 (weed kill ratio 5% or more, less than 20%)"
same,I (Italian ryegrass) weedkilling efficacy grade,[8],"4 (weed kill ratio 70% or more, less than 90%)"
same,b (directly sown rice) effect on crop grade,[9],"4 (weed kill ratio 70% or more, less than 90%)"
same,C (oval-leafed pondweed) weedkilling efficacy grade,[10],"3 (weed kill ratio 40% or more, less than 70%)"
same,C (oval-leafed pondweed) weedkilling efficacy grade,[11],"4 (weed kill ratio 70% or more, less than 90%)"
same,B (bulrush) weedkilling efficacy grade,[12],"5 (weed kill ratio 90% or more, (practically complete withering))"
same,d (soybean) effect on crop grade,[13],"1 (weed kill ratio 5% or more, less than 20%)"
same,P (birds-eye speedwell) weedkilling efficacy grade,[14],"4 (weed kill ratio 70% or more, less than 90%)"
same,A (barnyard grass) weedkilling efficacy grade,[15],"2 (weed kill ratio 20% or more, less than 40%)"
same,O (catchweed) weedkilling efficacy grade,[16],0 (weed kill ratio 5% or less (practically no effect))
same,G (wild oat) weedkilling efficacy grade,[17],"5 (weed kill ratio 90% or more, (practically complete withering))"
same,b (directly sown rice) effect on crop grade,[18],"4 (weed kill ratio 70% or more, less than 90%)"
same,L (redroot pigweed) weedkilling efficacy grade,[19],"3 (weed kill ratio 40% or more, less than 70%)"
same,O (catchweed) weedkilling efficacy grade,[20],"3 (weed kill ratio 40% or more, less than 70%)"
same,B (bulrush) weedkilling efficacy grade,[21],"5 (weed kill ratio 90% or more, (practically complete withering))"
same,E (green foxtail) weedkilling efficacy grade,[22],"5 (weed kill ratio 90% or more, (practically complete withering))"
same,f (beet) effect on crop grade,[23],"4 (weed kill ratio 70% or more, less than 90%)"
same,E (green foxtail) weedkilling efficacy grade,[24],"5 (weed kill ratio 90% or more, (practically complete withering))"
same,K (Indian mallow) weedkilling efficacy grade,[25],0 (weed kill ratio 5% or less (practically no effect))
same,K (Indian mallow) weedkilling efficacy grade,[26],0 (weed kill ratio 5% or less (practically no effect))
same,D (crabgrass) weedkilling efficacy grade,[27],"5 (weed kill ratio 90% or more, (practically complete withering))"
same,M (fig-leafed goosefoot) weedkilling efficacy grade,[28],"3 (weed kill ratio 40% or more, less than 70%)"
same,L (redroot pigweed) weedkilling efficacy grade,[29],"4 (weed kill ratio 70% or more, less than 90%)"
same,H (black-grass) weedkilling efficacy grade,[30],"5 (weed kill ratio 90% or more, (practically complete withering))"
same,c (corn) effect on crop grade,[31],0 (weed kill ratio 5% or less (practically no effect))
same,P (birds-eye speedwell) weedkilling efficacy grade,[32],"5 (weed kill ratio 90% or more, (practically complete withering))"
same,a (transplanted rice) effect on crop grade,[33],0 (weed kill ratio 5% or less (practically no effect))
same,e (wheat) effect on crop grade,[34],0 (weed kill ratio 5% or less (practically no effect))
same,N (chickweed) weedkilling efficacy grade,[35],"4 (weed kill ratio 70% or more, less than 90%)"
same,A (barnyard grass) weedkilling efficacy grade,[36],"5 (weed kill ratio 90% or more, (practically complete withering))"
same,f (beet) effect on crop grade,[37],"3 (weed kill ratio 40% or more, less than 70%)"
same,e (wheat) effect on crop grade,[38],0 (weed kill ratio 5% or less (practically no effect))
same,D (crabgrass) weedkilling efficacy grade,[39],"5 (weed kill ratio 90% or more, (practically complete withering))"

# From US9738634B2, “Heterocyclic amide compound and herbicide” (SYNGENTA PARTICIPATIONS AG, priority 2013, dated 2017)
